From patent US6001812A, “Modulating body/cranial hair growth with derivatives of the α-type melanocyte-stimulating hormone” (Societe L'Oreal S.A., priority 1995, dated 1999)
Where a SMILES comes first, the peptide text is derived from it.

System: hair follicles
Assay: Lengthening and survival of hair follicles maintained in vitro
Assay type: cell-based
Design: Mean lengthening: unit not given here
Protocol: Viable in vitro hair follicles were prepared according to the technique described in French Patent Application No. 95-08465, filed Jul. 12, 1995 and assigned to the assignee hereof.
From a scalp biopsy, a rather fine strip of scalp was isolated using a scalpel. The adipose tissue surrounding the follicles was removed with microforceps while avoiding damage to the hair bulb. The follicles were cut out with a scalpel under a microscope in order to separate them from their epidermal and dermal surroundings.
The follicles were then cultured in the wells of Costar-type 24-well plates, at the rate of one follicle per well. Each well contained 0.5 ml of Williams' medium E, to which had been added penicillin and streptomycin to a final concentration of 50 IU/ml, glutamine to 2 mM, bovine insulin to 0.01 mg/ml and hydrocortisone to 0.04 mg/ml.
The follicles were then measured using a microscope equipped with a micrometric eyepiece.
After 24 hours, the follicles were again measured and those which had lengthened by less than 0.3 divisions of the micrometer, corresponding to 0.16 mm, were discarded.
The five (5) following culturing conditions were tested:
Condition A: Complete Williams' medium E, without peptide.
Condition B: Complete Williams' medium E+10 mM Ac-LPV-NH2.
Condition C: Complete Williams' medium E+1 mM Ac-LPV-NH2.
Condition D: Complete Williams' medium E+0.1 mM Ac-LPV-NH2.

[1] = 0.1 mM peptide in complete Williams' medium E, day 0
[2] = 0.1 mM peptide in complete Williams' medium E, day 1
[3] = 0.1 mM peptide in complete Williams' medium E, day 4
[4] = 1 mM peptide in complete Williams' medium E, day 0
[5] = 1 mM peptide in complete Williams' medium E, day 1
[6] = 1 mM peptide in complete Williams' medium E, day 11
[7] = 10 mM peptide in complete Williams' medium E, day 0
[8] = 10 mM peptide in complete Williams' medium E, day 1
[9] = 10 mM peptide in complete Williams' medium E, day 12
[10] = summary of Example 1, versus medium without peptide

CC(=O)N[C@@H](CCCCN)C(=O)N1CCC[C@H]1C(=O)N[C@H](C(N)=O)C(C)C [Acetyl-Lys-Pro-Val-NH2] (Ac-Lys-Pro-Val-NH2)
% Survival [1]: 100%
Mean lengthening [1]: 0.00
% Survival [2]: 100%
Mean lengthening [2]: 0.37
% Survival [3]: 100%
Mean lengthening [3]: 1.10
% Survival (0.1 mM peptide in complete Williams' medium E, day 5): 100%
% Survival (0.1 mM peptide in complete Williams' medium E, day 6): 100%
% Survival (0.1 mM peptide in complete Williams' medium E, day 7): 83%
% Survival (0.1 mM peptide in complete Williams' medium E, day 8): 50%
% Survival (0.1 mM peptide in complete Williams' medium E, day 11): 42%
% Survival (0.1 mM peptide in complete Williams' medium E, day 12): 17%
% Survival [4]: 100%
Mean lengthening [4]: 0.00
% Survival [5]: 100%
Mean lengthening [5]: 0.38
% Survival (1 mM peptide in complete Williams' medium E, day 4): 100%
% Survival (1 mM peptide in complete Williams' medium E, day 5): 100%
% Survival (1 mM peptide in complete Williams' medium E, day 6): 100%
% Survival (1 mM peptide in complete Williams' medium E, day 7): 91%
% Survival (1 mM peptide in complete Williams' medium E, day 8): 55%
% Survival [6]: 36%
Mean lengthening [6]: 1.70
% Survival [7]: 100%
Mean lengthening [7]: 0.00
% Survival [8]: 100%
Mean lengthening [8]: 0.38
% Survival (10 mM peptide in complete Williams' medium E, day 4): 100%
% Survival (10 mM peptide in complete Williams' medium E, day 5): 100%
% Survival (10 mM peptide in complete Williams' medium E, day 6): 100%
% Survival (10 mM peptide in complete Williams' medium E, day 7): 100%
% Survival (10 mM peptide in complete Williams' medium E, day 8): 92%
% Survival (10 mM peptide in complete Williams' medium E, day 11): 83%
% Survival [9]: 42%
Mean lengthening [9]: 2.40
Effect on lengthening of the cultured hair follicles (in words) [10]: promoted the lengthening
Effect on survival time of the cultured hair follicles (in words) [10]: increased their survival time
